Test results: patent US8227501B2, “1,6-dihydro-2H-3-oxa-6-aza-as-indacene compounds” (Ferrer Internacional, S.A., priority 2008, dated 2012)

Legend:
[1] = therapeutic use in humans; cited from earlier work
[2] = target: T1, recombinant human-MT1 receptor (Homo sapiens, UniProt P48039); assay: In vitro MT1 screening, agonist activity (AequoScreen aequorin luminescence); format: cell-based; conditions: percentage of activity relative to the reference agonist at the EC100 concentration
T1 construct: expressed in transfected cells; host or cells: unnamed cell line stably overexpressing human MT1, co-expressing mitochondrial apoaequorin and Gα16
T1 sequence (P48039 whole entry): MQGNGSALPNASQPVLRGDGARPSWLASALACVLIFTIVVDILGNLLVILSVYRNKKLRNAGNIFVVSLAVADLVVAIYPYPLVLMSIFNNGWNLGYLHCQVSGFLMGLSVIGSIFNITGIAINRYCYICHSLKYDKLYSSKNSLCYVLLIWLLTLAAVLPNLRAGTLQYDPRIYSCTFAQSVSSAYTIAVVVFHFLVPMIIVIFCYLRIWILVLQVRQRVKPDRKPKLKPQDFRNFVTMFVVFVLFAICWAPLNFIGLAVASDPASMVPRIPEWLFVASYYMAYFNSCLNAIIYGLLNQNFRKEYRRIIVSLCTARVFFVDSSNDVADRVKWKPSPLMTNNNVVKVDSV
From the text: To proceed with compound screening over MT1 receptor, a cell line characterised by a stable overexpression of recombinant human-MT1 receptor was used. This line co-expresses mitochondrial apoaequorin and subunit Gα16.
Subunit Gα16 belongs to […], in which intracelular signal transduction is produced via phospholipase (PLC). Activation of PLC produces an increment of inositol-triphosphate levels and intracellular calcium levels. This increment in calcium levels is, therefore, independent and full compatible with the signal transduction of MT1 receptor.
After binding to calcium, aequorin carries out the oxidation of colenterazine to colenteramide, a luminescent reaction.
Assay protocol for agonist screening consists in an overnight incubation of cells and colenterazine, being performed by an AequoScreen™ system instrument, PerkinElmer, USA. After that this mixture was injected over a plate that contains the solution of the compounds to screen and luminescence was immediately read. Only in case of antagonism screening, after 15-30 min of the first injection the reference agonist was added in the same well, and then luminescence was measured.
Agonist activity was calculated as percentage of activity relative to the reference agonist at the EC100 concentration. Activity of antagonists was expressed as the inhibition percentage over the activity of reference agonist at its EC80, concentration.

| Structure (SMILES) | half-life [1] | Agonism percentages of MT1, 1 nM ([2]; 1 nM compound) [%] | Agonism percentages of MT1, 100 nM ([2]; 100 nM compound) [%] | activation at 0.001 µM ([2]; 1 nM compound, read-out: Agonism percentages of MT1, 1 nM) [%] | activation at 0.1 µM ([2]; 100 nM compound, read-out: Agonism percentages of MT1, 100 nM) [%] |
| --- | --- | --- | --- | --- | --- |
| COc1ccc2[nH]cc(CCNC(C)=O)c2c1 [Melatonin, reference compound] | minutes | 48.0 | 102.6 |  |  |
| CCC(=O)NCC[C@@H]1CCc2ccc3c(c21)CCO3 [Ramelteon, N-[2-[(8S)-1,6,7,8-tetrahydro-2H-indeno[5,4-b]furan-8-yl)ethyl]propionamide, reference compound] |  |  |  | 47.4 | 118 |
